{
  "source": "patent US10973863B2",
  "about": "“Method for regulating, preventing and/or treating pulmonary injury” (SINPHAR PHARMACEUTICAL CO., LTD., priority 2017, dated 2021)",
  "key": {"Mucin 5AC": {"tested_on": "Mucin 5AC", "assay": "Western blot: LPS-induced expression of Mucin 5AC in NCI-H929 cells", "assay_type": "cell-based, human", "settings": "1 μg/mL LPS, 24 hours, vs control group", "description": "As indicated above, the hypersecretion of mucus in airway can be observed in the patients suffering from pulmonary injury-related diseases, such as chronic obstructive pulmonary disease and emphysema, and the mucus hypersecretion is associated with the overexpression of mucins in pulmonary tissue. Symptoms like the increased sputum production will occur in the patients suffering from the mucin hypersecretion in airway, and the increased sputum will accumulate in the airway and lung, thereby making the airway narrow and increasing respiratory resistance. To investigate the effects of active ingredients of FU-LING extract in regulating, preventing, and/or treating the pulmonary injury-related diseases, such as chronic obstructive pulmonary disease and emphysema, a Western blot was conducted to measure the inhibitory rate of active ingredients of FU-LING extract (tumulosic acid and poricoic acid A) on the LPS-induced expression of Mucin 5AC in human lung epithelial NCI-H929 cells.\nHuman lung epithelial NCI-H929 cells were divided into ten groups and separately cultivated with the following media for 24 hours:\n(1) Control group: an epithelial cell growth medium containing […];\n(2) Positive control group: an epithelial cell growth medium containing 1 μg/mL LPS and 10 μM Dex;\n(3) TA group (including four sub-groups): an epithelial cell growth medium containing […] the tumulosic acid (TA) provided by [preparation example C-1], wherein the tumulosic acid (TA) is present in the four sub-groups at a concentration of 1.56, 3.13, 6.25 and 12.5 μg/mL respectively; and\n(4) PAA group (including four sub-groups): an epithelial cell growth medium containing 1 μg/mL LPS the poricoic acid A (PAA) provided by [preparation example C-1], wherein the poricoic acid A (PAA) is present in the four sub-groups at a concentration of 6.25, 12.5, 25 and 50 μg/mL respectively.\nThereafter, the proteins in the cells of each group were extracted and then subjected to a Western blot to measure the expression level of Mucin 5AC. The relative expression level of Mucin 5AC of each group was calculated by using the results of the control group as a basis (i.e., the expression level of control group was served as 1-fold)."}, "MMP-9": {"tested_on": "MMP-9", "assay": "Gelatin zymography: LPS-activated active expression of MMP-9 in NR8383 cells", "assay_type": "cell-based, rat", "settings": "Table 5, LPS 1 μg/mL, 24 hours", "description": "As indicated above, when an inflammatory response occurs in animal's pulmonary tissue, the active inflammatory cells will secret MMPs that will destroy the pulmonary tissue structure, cause more serious pulmonary injury, and lead to the decrement in or the loss of pulmonary functions. […]\nThereafter, the medium of each group was collected and respectively subjected to the following procedures. A 10% polyacrylamide gel containing 0.2% gelatin was used to carry out the sodium dodecyl sulfate polyacrylamide gel electrophoresis (SDS-PAGE). After the electrophoresis was completed, the gel was sequentially soaked in 2.5% Triton X-100 solution for 90 minutes to remove SDS, soaked in distillation-distillation water (ddH2O) for 30 minutes, and placed in a reaction solution (50 mM Tris-HCl buffer containing 10 mM CaCl2 and 0.02% NaN3) at a temperature of 37° C. for 18 hours. After the foregoing reaction was completed, the gel was stained by a Coomassie blue staining solution, and the image of stained gel was taken and subjected to an image analysis. The image intensity (the image intensity was calculated based on the size of area and the shade of color) of highlight band (i.e., the gelatin in this area was degraded by MMPs, wherein the area locating around 95 kD molecular weight) on the gel of each group can reflect the active expression of MMP-9 of rat alveolar macrophage NR8383 cells under different conditions (the relative active expression of MMP-9 was calculated by serving the results of the blank group as 0% and serving that of the control group as 100%).\nRat alveolar macrophage NR8383 cells were divided into twenty-eight groups and separately cultivated with the following media for 24 hours: • (1) Blank group: a macrophage growth medium; • (2) Control group: a macrophage growth medium containing 1 μg/mL LPS; • (3) Positive control group: a macrophage growth medium containing 1 μg/mL LPS and 5 μM Prednisolone (a type of corticosteroid; abbreviated as “Pred”; purchased from Sigma-Aldrich); • (4) Extract C (including five sub-groups): a macrophage growth medium containing 1 μg/mL LPS and the extract C provided by [preparation example A-3-2], wherein the extract C is present in the five sub-groups at a concentration of […] respectively; • (5) Extract D (including five sub-groups): a macrophage growth medium containing 1 μg/mL UPS and the extract D provided by [preparation example A-4-2], wherein the extract D is present in the five sub-groups at a concentration of 0.78, 1.56, 3.13, 6.25 and 12.5 respectively; • (6) Extract E (including five sub-groups): a macrophage growth medium containing 1 μg/mL LPS and the extract E provided from [preparation example A-4-3], wherein the extract E is present in the five sub-groups at a concentration of 0.78, 1.56, 3.13, […], and 12.5 respectively; • (7) DATA group (including five sub-groups): a macrophage growth medium containing 1 μg/mL LPS and the dehydrotrametenolic acid (DTTA) provided by [preparation example C-1], wherein the dehydrotrametenolic acid (DTTA) is present in the five sub-groups at a concentration of 0.39, 0.78, 1.56, 3.13 and 6.25 μg/mL respectively; and • (8) PAA group (including live sub-groups): a macrophage growth medium containing 1 μg/mL LPS and the poricoic acid A (PAA) provided from [preparation example C-1], wherein the poricoic acid A (PAA) is present in the five sub-groups at a concentration of 6.25, 12.5, 25, 50 and 100 respectively.\nThereafter, the medium of each group was collected and analyzed by the analyzing procedures same as that of (1-1)."}},
  "data": [
    {"smiles": "C=C(CC[C@@H](C(=O)O)[C@H]1[C@H](O)C[C@@]2(C)C3=CC[C@@H](C(=C)C)[C@](C)(CCC(=O)O)C3=CC[C@]12C)C(C)C", "note": "[PAA, poricoic acid A]", "values": [
      {"measurement": "Inhibitory rate on LPS-induced expression of Mucin 5AC", "setting": "Mucin 5AC; 6.25 μg/mL (low-dose)", "value": "up to 63%"},
      {"measurement": "Inhibitory rate on LPS-induced expression of Mucin 5AC", "setting": "Mucin 5AC; 50 μg/mL (high-dose)", "value": "≤ 87", "unit": "%"},
      {"measurement": "Relative active expression of MMP-9 (%)", "setting": "MMP-9; 6.25 μg/mL", "value": 82, "unit": "%"},
      {"measurement": "Relative active expression of MMP-9 (%)", "setting": "MMP-9; 12.5 μg/mL", "value": 77, "unit": "%"},
      {"measurement": "Relative active expression of MMP-9 (%)", "setting": "MMP-9; 25 μg/mL", "value": 60, "unit": "%"},
      {"measurement": "Relative active expression of MMP-9 (%)", "setting": "MMP-9; 50 μg/mL", "value": 35, "unit": "%"},
      {"measurement": "Relative active expression of MMP-9 (%)", "setting": "MMP-9; 100 μg/mL", "value": 18, "unit": "%"}
    ]}
  ]
}
